Values of other authors, collected in patent publication US12473269B2, “Urolithin derivatives and methods of use thereof” (Vandria SA, priority 2021, dated 2025).

Tested on: C2C12 myoblasts
Details: treatment of C2C12 myoblasts; mitochondrial fragmentation and decrease in mitochondrial content; Ryu et al., Nat Med 2016

## O=c1oc2cc(O)ccc2c2ccc(O)cc12 [UA, Urolithin A]
  induction of mitophagy: induction of mitophagy
